One assay has as its system ABCB1 gene expression. Briefly: Real-time PCR of ABCB1 mRNA level in HL-60 cells. The format is cell-based. As to conditions: higher concentration (1.8 µM; 0.9 and 1.8 µM tested), 24 h. The source says:
Overexpression of ATP-binding cassette (ABC) transporters causing multidrug resistance (MDR) in cancer cells is one of the major problems associated with poor therapeutic outcome of anticancer drugs. ABC transporters reduce the cellular uptake of drugs into cancer cells, defending them from medical interventions. In leukemia cells ABCB1 (P-glycoprotein), overexpression has been observed. […] It seemed interesting to determine if 3-methylidenequinolin-4-one 5a would also down-regulate ABCB1 mRNA levels in leukemia HL-60 cells. Here, we tested the ABCB1 gene expression of 5a at two concentrations, 0.9 and 1.8 µM. Compound 5a decreased the ABCB1 mRNA level at a higher concentration (Figure 6).
The mRNA level of the ABCB1 gene was assessed using quantitative real-time PCR. Briefly, HL-60 cells were seeded in 6-well plates (4.0 × 10^5 cells/mL) in 2 mL of growth medium and treated with 5a for 24 h. Total RNA was extracted using the Total RNA Mini Kit (A&A Biotechnology, Gdynia, Poland) according to the manufacturer’s protocol. The concentration of RNA used for further experiments was 500 ng. cDNA was synthesized using Transcriba Kit (A&A Biotechnology, Gdynia, Poland). […] The expression level of ABCB1 gene was determined by the 2^−∆∆CT method.

For another assay, the system named is HL-60 cells. As to the kind of experiment: Apoptosis by FITC-Annexin V and PI double-staining, flow cytometry. The class given is cell-based. As to conditions: 1.8 µM, 24 h. As for the experimental part:
Pro-apoptotic activity of 5a was also confirmed using FITC-Annexin V and PI double-staining, based on the loss of plasma membrane asymmetry (phosphatidylserine externalization), which is a marker of the earlier stages of apoptosis.
Apoptotic cell death was determined using FITC-Annexin V Apoptosis Detection Kit I (BD Bioscience, San Jose, CA, USA). Briefly, HL-60 cells were seeded in the 6-well plates (4.0 × 10^5 cells/well) in 2 mL of the culture medium and treated with […] for 24 h. Afterwards, the cells were collected by centrifugation (300× g, 5 min), washed with PBS, re-suspended in binding buffer and stained with FITC-conjugated annexin V and propidium iodide (PI) according to the manufacturer guidelines (15 min, at room temperature). The samples were analyzed by flow cytometry using CytoFLEX (Beckman Coulter, Inc., Brea, CA, USA). Data analysis was performed using Kaluza Analysis Software v2 (Beckman Coulter, Inc., Brea, CA, USA).
For orientation: In flow cytometry, cells or beads pass a laser one at a time.

A further assay relates to HUVEC cells. Briefly: MTT in vitro cytotoxicity assay, HUVEC (normal cells). The format is cell-based, human. The following applies: Homo sapiens, HUVEC, 48 h incubation, mean ± SEM. As for the experimental part:
The promyelocytic leukemia HL-60 and breast cancer adenocarcinoma MCF-7 cell lines were purchased from the European Collection of Cell Cultures (ECACC). Leukemia cells were cultured in RPMI 1640 plus GlutaMax I medium (Gibco/Life Technologies, Carlsbad, CA, USA). MCF-7 cells were maintained in Minimum Essential Medium Eagle (Sigma Aldrich, St. Louis, MO, USA) and supplemented with 2 mM glutamine and men non-essential amino acid solution (Sigma Aldrich, St. Louis, MO, USA). Both media were supplemented with 10% heat-inactivated fetal bovine serum (Biological Industries, Beit-Haemek, Israel) and antibiotics (100 U/mL penicillin and 100 μg/mL streptomycin) (Sigma-Aldrich, St. Louis, MO, USA). Human umbilical vein endothelial cells (HUVECs) were purchased from the American Type Culture Collection (ATCC). Cells were cultured using EGM-2 Endothelial Medium BulletKit purchased from Lonza (Lonza, Walkersville, MD, USA). Cells were maintained at 37 °C in 5% CO2 atmosphere and grown until 80% confluent.
The tested compounds were dissolved in sterile dimethyl sulfoxide (DMSO) and further diluted with culture medium. The final concentration of DMSO in cell cultures was less than 0.1% v/v. Controls without and with 0.1% DMSO were performed in each experiment. At the used concentration, DMSO had no effect on the observed parameters.
The MTT (3-(4,5-dimethylthiazol-2-yl)-2,5-diphenyltetrazolium bromide) assay, which measures the activity of cellular dehydrogenases, was performed according to the Mosmann method. Exponentially growing cells were seeded into 24-well plates at a density of 8 × 10^4 cells/mL and left to grow for 24 h. After 24 h or 48 h of incubation with various concentrations of the tested compounds (dissolved in DMSO and diluted with complete culture medium), cells were incubated with 0.1 mL of MTT solution (5 mg/mL in phosphate buffered saline) for 1.5 h. The metabolically active cells reduced MTT to blue formazan crystals. The plates were centrifuged, and the supernatant was discarded. DMSO (1 mL) was added to each well to dissolve the crystals, whose absorbance was measured at 560 nm using FlexStation 3 Multi-Mode Microplate Reader (Molecular Devices, LLC, San Jose, CA, USA). The untreated cells were used as control. The IC50 values were calculated from the concentration–response curves. The data were expressed as mean ± SEM of three independent experiments.

The structures appear in SMILES notation.

As a reminder, the IC50 is the midpoint of a concentration-inhibition curve. Turning to `C=C1C(=O)c2ccccc2N(S(=O)(=O)c2ccccc2)C1CC` (stereo not shown) [Compound 5a, 2-Ethyl-3-methylidene-1-(phenylsulfonyl)-2,3-dihydroquinolin-4(1H)-one], the “ABCB1 mRNA level” value with ABCB1 gene expression was “decreased”. For the same compound, in the assay on HL-60 cells, the “early apoptotic cell fraction (Annexin V-positive)” value is listed as “up to 13.9%”; the “late apoptotic cell fraction (Annexin V- and PI-positive)” value is at most 13.7%. The compound further showed an IC50 in the assay with HUVEC cells of 1870 ± 20 nM.

Source of the values: article PMC9181899, “Synthesis and Anticancer Properties of New 3-Methylidene-1-sulfonyl-2,3-dihydroquinolin-4(1H)-ones” (Molecules, 2022).
